Residues, ends and D or L forms follow the SMILES beside them.
Experiments:
Assay type in all cases: cell-based, Escherichia coli
[1] = tested on: stationary phase E. coli cells; test: Killing assay, stationary phase cells; conditions: 10^5 CFU/mL
Protocol: For this study, a well-characterized strain of E. coli (ATCC 25922) was used. The strain was stored at − 80 °C in 15% (v/v) glycerol until sub-cultured onto LB agar plates for use.
The antibacterial activity of α-MSH and its cationic analogues was determined against both logarithmic (2–3 h) and stationary (16–18 h) phase of E. coli cells in LB medium. The bacterial suspension was pelleted, washed, and diluted in HEPES-glucose buffer (5 mM HEPES, 20 mM glucose, pH 7.4) to adjust the cell density by measuring the OD = 0.5 (10^8 CFU/mL) at 600 nm using a spectrophotometer. This suspension was used to obtain the desired inoculum sizes (10^5 CFU/mL, 10^6 CFU/mL, and 10^7 CFU/mL). The inoculums were exposed to various concentrations of peptides (1 µM, 2 µM, 5 µM, and 10 µM) and incubated at 37 °C. Untreated E. coli cells were also included as a control. At selected time points (0 min, 15 min, 30 min, 60 min, and 120 min), aliquots were taken out, and survival of E. coli cells was determined by quantitative plating on LB agar after appropriate dilution in the same buffer. The plates were incubated overnight at 37 °C, followed by colony counting. Each experiment was performed at least three times on three independent days.

E. coli outer membrane = test: Outer membrane permeabilization assay (NPN uptake); conditions: 10^8 CFU/mL mid-log cells, 10 μM NPN, relative to 10 µM polymyxin B = 100%
Protocol: The outer membrane permeabilization assay was done as described in the literature with slight modifications. Briefly, bacterial cells were grown to mid-log phase in LB medium, washed and diluted to 10^8 CFU/mL in HEPES-glucose buffer. Next, this bacterial suspension was treated with 10 μM NPN probe and subsequently challenged with increasing concentrations of peptides (1 µM to 20 µM). Changes in the fluorescence intensity of NPN were measured with the help of Shimadzu RF-5301 PC spectrofluorimeter (excitation at 350 nm and emission at 420 nm). Increased intensity of emission resulted from the damage to the bacterial outer membrane and was measured until no further increase in fluorescence was observed. NPN uptake was calculated using the following formula: %NPNuptake=Fobs-F0/F100-F0×100 where Fobs is the NPN fluorescence intensity after the peptide treatment, F0 is the NPN fluorescence with untreated E. coli cells, and F100 is the NPN fluorescence in the presence of 10 µM polymyxin B (a positive control).

E. coli ATCC 25922 = test: Transmission electron microscopy (TEM) of treated cells; conditions: 100 µM peptide, 2 h, 37 °C, 10^8 CFU/mL mid-log cells
Protocol: To detect ultra-structural changes in E. coli on peptide treatment, TEM was used[16]. In brief, the mid-log E. coli cells (10^8 CFU/mL) were exposed with 100 µM concentration of all peptides independently for 2 h at 37 °C. After treatment, the cells were washed with PB buffer and fixed with 2.5% glutaraldehyde overnight at 4 °C. Next, the samples were post-fixed in 1.0% OsO4 and stained with uranyl acetate. After fixation, cells were dehydrated in a series of graded acetone and embedded in epoxy resin. Thin sections were made using a microtome (Leica EM UC6), which were transferred onto copper grids and stained with uranyl acetate followed by lead citrate. Samples were viewed via a transmission electron microscope (JEOL 2100F) to detect the ultrastructural and other morphological changes in the bacterial cells.

E. coli cells = test: Membrane permeabilization assay (PI uptake, flow cytometry); conditions: 1 h; for PI positive cells: at lower and higher concentrations, from 2 to 10 µM, 10^6 CFU/mL, PI 1.3 µg/mL, 37 °C, flow cytometry; for cell viability on plating the cell suspension used for the PI uptake assay, in words: same cell density and peptide concentrations as PI uptake experiment
Protocol: Membrane permeabilization of E. coli cells was determined via propidium iodide (PI) uptake assay through flow cytometry as described previously with slight modifications. Briefly, mid-log phase E. coli cells were adjusted to 10^6 CFU/mL in the HEPES-glucose buffer. Next, cells were incubated with propidium iodide (PI) at 1.3 µg/mL concentration for 30 min in the dark. After incubation, PI-loaded cells were treated with a range of peptide concentrations, i.e., 1 µM, 2 µM, 5 µM, and 10 µM, at 37 °C for 1 h, and PI fluorescence intensity was measured through Becton Dickinson (BD) FACS verse (San Jose, CA) flow cytometer using excitation at 544 nm and emission at 620 nm.
Figure S2: Histograms of E. coli cells treated with 2 µM concentration of α-MSH and its analogues and 1 µM concentration of polymyxin B for 1 h. Towards monitoring the membrane permeabilizations of E. coli cells, propidium iodide (PI) uptake assay through flow cytometry was performed using the previously standardized method with mild modifications ^2. Briefly, mid-log phase grown E. coli cells (10^6 CFU/mL) suspended in the HEPES-glucose buffer were incubated with propidium iodide (PI) at a concentration of 1.3 µg/mL for 30 min in dark. After incubation, PI loaded cells were treated with a range of peptide concentrations; 1 µM, 2 µM, 5 µM and 10 µM at 37 °C for 1 h, and PI fluorescence intensity was measured through Becton Dickinson (BD) FACS verse (San Jose, CA) flow cytometer using excitation at 544 nm and emission at 620 nm.

[2] = peptide 1 μM, HEPES-glucose buffer, average of three independent days
[3] = peptide 20 μM (highest concentration)

| SMILES | log reduction in cell viability ([1]; HEPES-glucose buffer, 37 °C, peptide 10 µM, 2 h, mean ± SE, three independent days, SEM) [log] | killing activity against stationary phase cells, in words ([1]; peptide 10 µM, up to 2 h) | %NPN uptake (E. coli outer membrane; [2]) [%] | %NPN uptake (E. coli outer membrane; [3]) [%] | ultrastructural changes by TEM, in words (E. coli ATCC 25922) | PI positive cells (E. coli cells) | cell viability on plating the cell suspension used for the PI uptake assay, in words (E. coli cells) | incubation time to complete removal of the cells ([1]; peptide 1 µM) [h] | log reduction in the viability of the stationary phase cells ([1]; peptide 1 µM, 1 h) [log] | incubation time to eradication of the stationary phase cells ([1]; peptide 10 µM) [min] | %NPN uptake (E. coli outer membrane; peptide 2 μM) [%] | %NPN uptake (E. coli outer membrane; peptide 5 μM) [%] | %NPN uptake (E. coli outer membrane; peptide 10 μM) [%] |
| --- | --- | --- | --- | --- | --- | --- | --- | --- | --- | --- | --- | --- | --- |
| CSCC[C@H](NC(=O)[C@H](CCCCN)NC(=O)[C@H](Cc1ccc(O)cc1)NC(=O)[C@H](CCCCN)NC(C)=O)C(=O)N[C@@H](C)C(=O)N[C@@H](Cc1c[nH]cn1)C(=O)N[C@@H](Cc1ccccc1)C(=O)N[C@@H](CCCNC(=N)N)C(=O)N[C@@H](Cc1c[nH]c2ccccc12)C(=O)NCC(=O)N[C@@H](CCCCN)C(=O)N1CCC[C@H]1C(=O)N[C@H](C(N)=O)C(C)C [KKA-MSH] (Ac-KYKMAHFRWGKPV-NH2) | 2.2 ± 0.2 | could not obliterate the stationary phase cells | 12.5 | 55 | complete collapse of the E. coli membrane | more than 80% | significant reduction in the cell viability | – | – | – | – | – | – |
| CSCC[C@H](NC(=O)[C@H](CCCCN)NC(=O)[C@H](Cc1ccc(O)cc1)NC(=O)[C@H](CCCCN)NC(C)=O)C(=O)N[C@@H](CCCCN)C(=O)N[C@@H](Cc1c[nH]cn1)C(=O)N[C@@H](Cc1ccccc1)C(=O)N[C@@H](CCCNC(=N)N)C(=O)N[C@@H](Cc1c[nH]c2ccccc12)C(=O)NCC(=O)N[C@@H](CCCCN)C(=O)N1CCC[C@H]1C(=O)N[C@H](C(N)=O)C(C)C [KKK-MSH] (Ac-KYKMKHFRWGKPV-NH2) | – | – | 30.7 | 86 | complete collapse of the E. coli membrane | more than 80% | significant reduction in the cell viability | 2 | 2.5 | 30 | 34 | 55.6 | 77.6 |

— publication PMC8821551, “Binding of cationic analogues of α-MSH to lipopolysaccharide and disruption of the cytoplasmic membranes caused bactericidal action against Escherichia coli” (Scientific Reports, 2022)
